{"source": "patent US20240315283A1", "about": "“ISOFUCOSTEROL A KEY NUTRIENT FOR PHYTOSTEROL EATING ANIMALS SUCH AS POLLEN EATING AND ALGAE-EATING AND PLANKTON EATING ORGANISMS” (APIX BIOSCIENCES, priority 2021, published 2024)", "key": {"Honeybees [1]": {"system": "Honeybees", "experiment": "Brood production in APIDEA nuc colonies", "format": "in vivo, honeybee", "conditions": "pollen-free diet with isofucosterol vs isofucosterol-free diet, increasing concentration", "experimental": "Honeybees: Fully functional insulated styrofoam APIDEA nucs comprised 5 mini frames populated with adult workers and 1 mated laying queen bee were populated with 300-400 ml of young adult workers (˜N<1,000 bees of mixed ages).\nEach treatment was tested with 3-6 colonies; each colony was fed with a 60-100 g patty (solid diet) on the top feeder fitted with a mesh floor. Diet was fed on the first day and again on day 6; the quantity consumed was measured on day 6 and day 15. If no larvae or eggs/queen are observed by day 6 then the experiment is terminated. The number of capped brood cells was counted on day 15. The number of bee seams was estimated during each inspection. Sugar syrup (34%) and water was provided in feeders inside the tent to prevent carbohydrate starvation and to stimulate foraging activity.\nIn Example 3, bees were fed with a diet containing 10-18% protein, 6% fat, 1% vitamins/minerals and >75% carbohydrates.\nAs the concentration of isofucosterol increased, the amount of brood produced in each colony increased (N>3 colonies/treatment). The pupae, and the number of new adults was counted over the entire 10-week period."}, "Black soldier flies": {"system": "Black soldier flies", "experiment": "Black soldier fly feeding experiments", "format": "in vivo, Hermetia illucens", "experimental": "Adult survival and number of egg masses laid from a population fed with a pollen substitute diet (as specified in US2019/0090507 to Apix Biosciences) was measured daily using the methods of rearing described in Thinn and Kainoh 2022. JARQ 56 (2), 211-217 (2022). […] Black soldier fly (BSF) larvae were fed with a diet containing 22% protein, 4% fat as described in Hogsette 1992. J. Econ. Entomol. 85(6): 2291-2294 until ecclosion. Sterols were sourced as pure compounds added directly to diet to a total quantity of 0.1%. […] J. Entomol. 118: 297-306, 2021. […] Sterols were added to diet. Measurement of sterols in tissues was performed after saponification of BSF tissues using GC-MS as described in Boukid et al. 2022. Insects 12, 672."}, "adult worker honeybees": {"system": "adult worker honeybees", "experiment": "Survival of cohorts of bees on diets containing isofucosterol", "format": "in vivo, honeybee", "conditions": "pollen-free diet with isofucosterol vs isofucosterol-free diet", "experimental": "Newly emerged adult worker honeybees fed with a diet treatment and ad libitum access to water. The treatment diet contained the isofucosterol. Newly emerged bees were removed from the brood frame and cohorts of 30 bees per replicate were housed in plastic rearing cages. In all experiments, 10 cohorts of ˜30 bees each were used for each treatment group. In all diet's carbohydrate was maintained at 60% using sucrose and fat was maintained at 8%. Consumption of each diet was measured every day over the course of the experiment. The number of bees alive in the box was counted each day for 14 days.\nExample 2 represents the survival of cohorts of bees confined to feed on diets containing specific concentrations of isofucosterol (0%, 0.5% and 1% weight of diet), as shown in FIG. 2."}, "Honeybees [2]": {"system": "Honeybees", "experiment": "Long term Apidea experiment with bees fed a multiplicity of sterols", "format": "in vivo, honeybee", "conditions": "diet with isofucosterol and multiplicity of sterols; cycles of 21 days", "experimental": "Honeybees: Fully functional insulated styrofoam Apidea™ nucs comprised 3-5 mini frames populated with adult workers and 1 mated laying queen bee were populated with 300-400 ml of young adult workers (˜N<1,000 bees of mixed ages).\nEach treatment was tested with 3-6 colonies, each colony was fed ad libitum with the solid diet on the top feeder fitted with a mesh floor, and the quantity consumed was assessed at every feeding. The number of capped brood cells was assessed every 12 days. The number of bee seams was recorded during each inspection. If the colony reaches maximal size for the Apidea box, a super is added. Sugar syrup (34%) and water was provided in feeders inside the tent to prevent carbohydrate starvation and to stimulate foraging activity.\nIn Example 4A, bees were fed with a diet containing 15-30% protein, 4-12% fat, 1% vitamins/minerals and >40% carbohydrates (Diet 1). […]\nFIG. 4—results of experiment 4A: Mean area of sealed brood (cm2) assessed every 12 days over a 15-week period. […]"}, "[3]": {"system": "adult worker honeybees (Apis mellifera) or adult worker bumblebees (Bombus terrestris)", "experiment": "Two-choice preference assay, diet with or without isofucosterol", "format": "in vivo", "conditions": "choice of diet with or without isofucosterol, 5 days, FIG. 1", "experimental": "One treatment diet contained the isofucosterol and the other contained no sterol. Newly emerged bees were removed from the brood frame and cohorts of 30 bees per replicate were housed in plastic rearing cages. In all experiments, 10 cohorts of ˜30 bees each were used for each treatment group. […] Consumption of each diet was measured every 24 h for 5 days. Preference index was calculated as (amount of treatment consumed−amount of control consumed)/(total amount of food consumed). In Example 1, cohorts of bees were given a choice of diet with or without isofucosterol."}}, "data": [{"smiles": "C/C=C(/CC[C@@H](C)[C@H]1CC[C@H]2[C@@H]3CC=C4C[C@@H](O)CC[C@]4(C)[C@H]3CC[C@]12C)C(C)C", "note": "[isofucosterol, Isofucosterol]", "values": [{"measurement": "bee brood production", "setting": "Honeybees [1]", "result": "increased"}, {"measurement": "bee brood production", "setting": "Honeybees [1]; listed as Isofucosterol", "result": "increases"}, {"measurement": "egg laying and egg hatching performance and adult longevity", "setting": "Black soldier flies; cultivated Black Soldier Fly or beetle adults fed diet containing isofucosterol", "result": "improves"}, {"measurement": "performance of adult and larval BSF", "setting": "Black soldier flies; isofucosterol delivered through a pollen-free diet", "result": "increases the performance"}, {"measurement": "survival of worker bees", "setting": "adult worker honeybees", "result": "increases"}, {"measurement": "brood production / brood development supported", "setting": "Honeybees [2]", "result": "more than 4 cycles"}, {"measurement": "isofucosterol concentration in the diet that bees preferred to consume", "setting": "[3]", "result": "at least 0.05%"}]}]}
